In patent US12084434B2 (Scorpion Therapeutics, Inc., priority 2021, dated 2024) one finds IC50 data, which are given here for 31 compounds.

As a reminder, the IC50 is the midpoint of a concentration-inhibition curve.

The experiment relates to T47D pAKT (S473), PI3Kα H1047R mutation present. Briefly: HTRF pAKT-T47D.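 Further: assay medium was RPMI with 10% FBS and 0.2 units/ml bovine insulin, without phenol red.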 A general note: Time-resolved FRET reads energy transfer from a long-lived donor to a nearby acceptor.
[1] abbreviates: read-out: T47D pAKT IC50, T47D.1 cells, pAKT (S473) HTRF, 1 hour.
Setting [2] is: Homo sapiens, T47D, 1 h, read-out: T47D pAKT IC50 (nM), T47D.1 cells, pAKT (S473) HTRF, 1 hour.

Read-outs that look alike come from different tables or passages of the source.

Regarding `Cc1c(C(NC(=O)Nc2cnc(N3CCC(O)CC3)nc2)C(F)(F)F)oc2c(F)cc(F)cc12` (single isomer, unassigned) [Compound 192], the half-inhibitory concentration (IC50) under setting [1] is < 1000 nM.
Turning to `Cc1c(C(NC(=O)Nc2cnc(N[C@@H](C)CO)nc2)C(F)(F)F)oc2c(F)cc(F)cc12` (single isomer, unassigned) [Compound 195], the half-inhibitory concentration (IC50) under setting [1] is > 5000 nM.
Regarding `Cc1c(C(NC(=O)Nc2cnc(N[C@@H](C)CO)nc2)C(F)(F)F)oc2c(F)cc(F)cc12` (single isomer, unassigned) [Compound 196], under setting [1], the IC50 is < 1000 nM.
Regarding `Cc1c(C(NC(=O)Nc2cnc(N3CC(C(=O)O)C3)nc2)C(F)(F)F)oc2c(F)cc(F)cc12` (single isomer, unassigned) [Compound 197, 1-[5-({[1-(5,7-difluoro-3-methyl-1-benzofuran-2-yl)-2,2,2-trifluoroethyl]carbamoyl}amino)pyrimidin-2-yl]azetidine-3-carboxylic acid], under setting [1], the half-inhibitory concentration (IC50) was < 1000 nM.
On the same count and under the same terms, with `Cc1c(C(NC(=O)Nc2cnc(N3CC(C(=O)O)C3)nc2)C(F)(F)F)oc2c(F)cc(F)cc12` (single isomer, unassigned) [Compound 198, 1-[5-({[1-(5,7-difluoro-3-methyl-1-benzofuran-2-yl)-2,2,2-trifluoroethyl]carbamoyl}amino)pyrimidin-2-yl]azetidine-3-carboxylic acid] the figure was > 5000 nM; with `Cc1c(C(NC(=O)Nc2cnc(N3CC(O)C3)nc2)C(F)(F)F)oc2c(Cl)cc(F)cc12` (single isomer, unassigned) [Compound 199, 3-[1-(7-chloro-5-fluoro-3-methyl-1-benzofuran-2-yl)-2,2,2-trifluoroethyl]-1-[2-(3-hydroxyazetidin-1-yl)pyrimidin-5-yl] urea], > 5000 nM.
As for `Cc1c(C(NC(=O)Nc2cnc(N3CC(O)C3)nc2)C(F)(F)F)oc2c(Cl)cc(F)cc12` (single isomer, unassigned) [Compound 200, 3-[1-(7-chloro-5-fluoro-3-methyl-1-benzofuran-2-yl)-2,2,2-trifluoroethyl]-1-[2-(3-hydroxyazetidin-1-yl)pyrimidin-5-yl] urea], the IC50 under setting [1] was < 1000 nM.
As to `Cc1c(C(NC(=O)Nc2cnc(N3CC(C)(O)C3)nc2)C(F)(F)F)oc2c(Cl)cc(F)cc12` (single isomer, unassigned) [Compound 201, 1-(1-(7-chloro-5-fluoro-3-methylbenzofuran-2-yl)-2,2,2-trifluoroethyl)-3-(2-(3-hydroxy-3-methylazetidin-1-yl)pyrimidin-5-yl)urea], the concentration for half-maximal inhibition (IC50) under setting [1] is > 5000 nM.
Consider `Cc1c(C(NC(=O)Nc2cnc(N3CC(C)(O)C3)nc2)C(F)(F)F)oc2c(Cl)cc(F)cc12` (single isomer, unassigned) [Compound 202, 1-(1-(7-chloro-5-fluoro-3-methylbenzofuran-2-yl)-2,2,2-trifluoroethyl)-3-(2-(3-hydroxy-3-methylazetidin-1-yl)pyrimidin-5-yl)urea], for which the IC50 under setting [1] is < 1000 nM.
The same measure, in the same setting: the result for `Cc1c(C(NC(=O)Nc2cnc(N)nc2)C(F)(F)F)oc2c(C)cc(F)cc12` (single isomer, unassigned) [Compound 213, 1-(2-aminopyrimidin-5-yl)-3-[2,2,2-trifluoro-1-(5-fluoro-3,7-dimethyl-1-benzofuran-2-yl)ethyl]urea] reads > 5000 nM; that for `Cc1c(C(NC(=O)Nc2cnc(N)nc2)C(F)(F)F)oc2c(C)cc(F)cc12` (single isomer, unassigned) [Compound 214, 1-(2-aminopyrimidin-5-yl)-3-[2,2,2-trifluoro-1-(5-fluoro-3,7-dimethyl-1-benzofuran-2-yl)ethyl]urea], < 1000 nM.
`Cc1c(C(NC(=O)Nc2cnc(N)nc2)C(F)(F)F)oc2c(Br)cc(F)cc12` (single isomer, unassigned) [Compound 215, 1-(2-aminopyrimidin-5-yl)-3-[1-(7-bromo-5-fluoro-3-methyl-1-benzofuran-2-yl)-2,2,2-trifluoroethyl]urea]: under setting [2], the 50% inhibitory concentration (IC50) lay in the range of 1000 to 5000 nM.
Consider `Cc1c(C(NC(=O)Nc2cnc(N)nc2)C(F)(F)F)oc2c(Br)cc(F)cc12` (single isomer, unassigned) [Compound 216, 1-(2-aminopyrimidin-5-yl)-3-[1-(7-bromo-5-fluoro-3-methyl-1-benzofuran-2-yl)-2,2,2-trifluoroethyl]urea], for which the IC50 under setting [1] is < 1000 nM.
As for `Cc1c(C(NC(=O)Nc2cnc(N)nc2)C(F)(F)F)oc2c(C3CC3)cc(F)cc12` (single isomer, unassigned) [Compound 217, 1-(2-aminopyrimidin-5-yl)-3-[1-(7-cyclopropyl-5-fluoro-3-methyl-1-benzofuran-2-yl)-2,2,2-trifluoroethyl]urea], the half-inhibitory concentration (IC50) under setting [1] was > 5000 nM.
Consider `Cc1c(C(NC(=O)Nc2cnc(N)nc2)C(F)(F)F)oc2c(C3CC3)cc(F)cc12` (single isomer, unassigned) [Compound 218, 1-(2-aminopyrimidin-5-yl)-3-[1-(7-cyclopropyl-5-fluoro-3-methyl-1-benzofuran-2-yl)-2,2,2-trifluoroethyl]urea], for which, under setting [1], the half-inhibitory concentration (IC50) is < 1000 nM.
With `Cc1c(C(NC(=O)Nc2cnc(N)nc2)C(F)(F)F)oc2c(C#N)cc(F)cc12` (single isomer, unassigned) [Compound 219, 1-(2-aminopyrimidin-5-yl)-3-[1-(7-cyano-5-fluoro-3-methyl-1-benzofuran-2-yl)-2,2,2-trifluoroethyl]urea], the half-inhibitory concentration (IC50) under setting [2] lay within 1000 to 5000 nM.
As for `Cc1c(C(NC(=O)Nc2cnc(N)nc2)C(F)(F)F)oc2c(C#N)cc(F)cc12` (single isomer, unassigned) [Compound 220, 1-(2-aminopyrimidin-5-yl)-3-[1-(7-cyano-5-fluoro-3-methyl-1-benzofuran-2-yl)-2,2,2-trifluoroethyl]urea], the half-maximal inhibitory concentration (IC50) under setting [1] is < 1000 nM.
Regarding `Cc1c(C(NC(=O)Nc2ccc(N)cc2)C(F)(F)F)oc2c(F)cc(F)cc12` (single isomer, unassigned) [Compound 221, 1-(4-aminophenyl)-3-(1-(5,7-difluoro-3-methylbenzofuran-2-yl)-2,2,2-trifluoroethyl)urea], the IC50 under setting [2] fell in the range of 1000 to 5000 nM.
For the compound `Cc1c(C(NC(=O)Nc2ccc(N)cc2)C(F)(F)F)oc2c(F)cc(F)cc12` (single isomer, unassigned) [Compound 222, 1-(4-aminophenyl)-3-(1-(5,7-difluoro-3-methylbenzofuran-2-yl)-2,2,2-trifluoroethyl)urea], the IC50 under setting [1] was < 1000 nM.
Consider `Cc1c(C(NC(=O)Nc2cnc(N3CCC3)nc2)C(F)(F)F)oc2c(F)cc(F)cc12` (single isomer, unassigned) [Compound 223, 1-(2-(azetidin-1-yl)pyrimidin-5-yl)-3-(1-(5,7-difluoro-3-methylbenzofuran-2-yl)-2,2,2-trifluoroethyl)urea], for which, under setting [2], the IC50 was < 1000 nM.
Consider `Cc1c(C(NC(=O)Nc2cnc(N3CCC3)nc2)C(F)(F)F)oc2c(F)cc(F)cc12` (single isomer, unassigned) [Compound 224, 1-(2-(azetidin-1-yl)pyrimidin-5-yl)-3-(1-(5,7-difluoro-3-methylbenzofuran-2-yl)-2,2,2-trifluoroethyl)urea], for which the concentration for half-maximal inhibition (IC50) under setting [1] lay in the range of 1000 to 5000 nM.
With `Cc1c(C(NC(=O)Nc2cnc(N3CC(F)C3)nc2)C(F)(F)F)oc2c(F)cc(F)cc12` (single isomer, unassigned) [Compound 225, 1-(1-(5,7-difluoro-3-methylbenzofuran-2-yl)-2,2,2-trifluoroethyl)-3-(2-(3-fluoroazetidin-1-yl)pyrimidin-5-yl)urea], the IC50 under setting [2] is 1000 to 5000 nM.
`Cc1c(C(NC(=O)Nc2cnc(N3CC(F)C3)nc2)C(F)(F)F)oc2c(F)cc(F)cc12` (single isomer, unassigned) [Compound 226, 1-(1-(5,7-difluoro-3-methylbenzofuran-2-yl)-2,2,2-trifluoroethyl)-3-(2-(3-fluoroazetidin-1-yl)pyrimidin-5-yl)urea]: the IC50 under setting [1] was < 1000 nM.
For `CNC(=O)c1ncc(NC(=O)N[C@H](c2oc3ccc(F)cc3c2C)C(C)C)cn1` [Compound 77, (S)-5-(3-(1-(5-fluoro-3-methylbenzofuran-2-yl)-2-methylpropyl)ureido)-N-methylpyrimidine-2-carboxamide], under setting [2], the IC50 was in the range of 1000 to 5000 nM.
As to `Cc1c([C@@H](NC(=O)Nc2cnc(C(N)=O)nc2)C(C)C)oc2ccc(F)cc12` [Compound 78, (S)-5-(3-(1-(5-fluoro-3-methylbenzofuran-2-yl)-2-methylpropyl)ureido)pyrimidine-2-carboxamide], the half-maximal inhibitory concentration (IC50) under setting [2] lay in the range of 1000 to 5000 nM.
Same read-out and setting: with `Cc1c([C@@H](NC(=O)Nc2cnc(N)nc2)C2(F)CC2)oc2ccc(F)cc12` [Compound 81, (R)-1-(2-aminopyrimidin-5-yl)-3-((5-fluoro-3-methylbenzofuran-2-yl)(1-fluorocyclopropyl)methyl)urea] the figure was < 1000 nM; with `Cc1c([C@@H](NC(=O)Nc2cnc(N)nc2)C2(C)CC2)oc2ccc(F)cc12` [Compound 84, (S)-1-(2-aminopyrimidin-5-yl)-3-((5-fluoro-3-methylbenzofuran-2-yl)(1-methylcyclopropyl)methyl)urea], < 1000 nM.
In the case of `Cc1c([C@@H](NC(=O)Nc2ncc(N)cn2)C(C)(C)C)oc2ccc(F)cc12` [Compound 86, (S)-1-(5-aminopyrimidin-2-yl)-3-(1-(5-fluoro-3-methylbenzofuran-2-yl)-2,2-dimethylpropyl)urea], under setting [2], the concentration for half-maximal inhibition (IC50) is < 1000 nM.
For the compound `Cc1c([C@@H](NC(=O)Nc2cnc(N3CC(O)C3)nc2)C(C)C)oc2ccc(F)cc12` [Compound 87, (S)-1-(1-(5-fluoro-3-methylbenzofuran-2-yl)-2-methylpropyl)-3-(2-(3-hydroxyazetidin-1-yl)pyrimidin-5-yl)urea], the concentration for half-maximal inhibition (IC50) under setting [2] is < 1000 nM.
`Cc1c([C@@H](NC(=O)Nc2cnc(N3CC(O)C3)nc2)C(F)(F)F)oc2ccc(F)cc12` [Compound 89, (R)-1-(2-(3-hydroxyazetidin-1-yl)pyrimidin-5-yl)-3-(2,2,2-trifluoro-1-(5-fluoro-3-methylbenzofuran-2-yl)ethyl)urea]: the 50% inhibitory concentration (IC50) under setting [2] is < 1000 nM.
On the same count and under the same terms, the result for `Cc1c([C@@H](NC(=O)Nc2cnc(N3CC(F)C3)nc2)C(F)(F)F)oc2ccc(F)cc12` [Compound 95, (R)-1-(2-(3-fluoroazetidin-1-yl)pyrimidin-5-yl)-3-(2,2,2-trifluoro-1-(5-fluoro-3-methylbenzofuran-2-yl)ethyl)urea] reads < 1000 nM.
